The record followed here is patent publication US7067113B2, “Methods for identifying compounds for regulating muscle mass or function using dopamine receptors” (The Procter & Gamble Company, priority 2002, dated 2006).

Each structure is given as a SMILES string.

Assay [1] concerns casting-induced (disuse) atrophy in mice. Put plainly: leg casting disuse atrophy model. Format: in vivo, mouse. The conditions noted are these: male mice. The method, then: Legend: A—physiological saline (control); B—SKF 81297 (0.3 mg/kg)+theophylline; C—SKF 81297 (1.0 mg/kg)+theophylline; D—SKF 81297 (3.0 mg/kg)+theophylline; *−p≦0.05 compared to saline. Following casting of the right hind leg, male mice were injected subcutaneously in the midscapular region twice daily, with SKF 81297 or vehicle control (physiological saline) for ten days at the daily delivered dose indicated. SKF 81297 was co-administered with twice daily intra-peritoneal dosing of the phosphodiesterase inhibitor theophylline (30 mg/kg). On day ten, the tibialis anterior muscle was removed and weighed to determine the degree of atrophy.
Legend: A—physiological saline (control); B—fenoldopam (0.3 mg/kg); C—fenoldopam (1.0 mg/kg); D—fenoldopam (3.0 mg/kg); *−p≦0.05 compared to saline. Following casting of the right hind leg, male mice were injected subcutaneously in the midscapular region twice daily, with fenoldopam or vehicle control (physiological saline) for ten days at the daily delivered dose indicated. On day ten, the medial gastrocnemius muscle was removed and weighed to determine the degree of atrophy.
The leg casting disuse atrophy model involves casting one hind leg of an animal from the knee down through the foot. Typically, muscle mass is reduced 20–40% after ten days of casting. Following casting, test compounds are administered by injection or by continuous infusion via implantation of an osmotic minipump (e.g., Alzet, Palo Alto, Calif.) to determine their effect on leg casting induced skeletal muscle atrophy. At various times following leg casting, the extent of atrophy in the affected muscles is analyzed as described above for the denervation model.

Assay [2] relates to mouse sciatic nerve denervation atrophy model. Put plainly: mouse sciatic nerve denervation atrophy model. Format: in vivo. The conditions noted are these: male mice. Here is the method:
Legend: A—physiological saline (control); B—SKF 81297 (0.3 mg/kg)+theophylline; C—SKF 81297 (1.0 mg/kg)+theophylline; D—SKF 81297 (3.0 mg/kg)+theophylline. *−p≦0.05 compared to saline. Following denervation of the right sciatic nerve, male mice were injected subcutaneously in the midscapular region twice daily with SKF 81297, at the doses indicated above or vehicle control (physiological saline) for nine days. SKF 81297 was co-administered with twice daily intra-peritoneal dosing of the phosphodiesterase inhibitor theophylline (30 mg/kg). On day nine, the tibialis anterior and medial gastrocnemius muscles were removed and weighed to determine the degree of atrophy.
The sciatic nerve denervation atrophy model involves anesthetizing the animal followed by the surgical removal of a short segment of either the right or left sciatic nerve, e.g., in mice the sciatic nerve is isolated approximately at the midpoint along the femur and a 3–5 mm segment is removed. This denervates the lower hind limb musculature resulting in atrophy of these muscles. Typically, innervation to the biceps femoris is left intact to provide satisfactory motion of the knee for virtually normal ambulation. Typically, in untreated animals, muscle mass of the denervated muscles is reduced 30–50% ten days following denervation. Following denervation, test compounds are administered e.g., by injection or by continuous infusion, e.g., via implantation of an osmotic minipump (e.g., Alzet, Palo Alto, Calif.), to determine their effect on denervation induced skeletal muscle atrophy. At various times following denervation, the animals are euthanized and lower leg muscles are dissected rapidly from both the denervated and nondenervated legs, the muscles, cleaned of tendons and connective tissue, are weighed. The extent of atrophy in the affected muscles is analyzed, for example, by measuring muscle mass, muscle cross-sectional area, myofiber cross-sectional area or contractile protein content.

For `Oc1ccc(C2CNCCc3c2cc(O)c(O)c3Cl)cc1` (stereo not shown) [Fenoldopam, 6-chloro-2,3,4,5-tetrahydro-1-(4-hydroxyphenyl)-[1H]-3-benzazepine-7,8-diol], the “disuse-induced atrophy of the medial gastrocnemius muscle (muscle weight)” value in assay [1] (right hind leg casted, s.c. twice daily for ten days, 0.3, 1.0, 3.0 mg/kg, FIG. 3) is listed as “inhibits”.
Regarding `Oc1cc2c(c(Cl)c1O)CCNCC2c1ccccc1` (stereo not shown) [SKF 81297, 6-chloro-7,8-dihydroxyl-1-phenyl-2,3,4,5-tetrahydro-1H-3-benzazepine], the “denervation-induced atrophy of the tibialis anterior muscle (muscle weight)” value in assay [2] (s.c. twice daily for nine days, 0.3, 1.0, 3.0 mg/kg, + theophylline 30 mg/kg i.p. twice daily, FIG. 1A) is “inhibits”. Also, the “denervation-induced atrophy of the medial gastrocnemius muscle (muscle weight)” value in assay [2] (s.c. twice daily for nine days, 0.3, 1.0, 3.0 mg/kg, + theophylline 30 mg/kg i.p. twice daily, FIG. 1B) was “inhibits”. In addition, the “hypertrophy in the normal (non-denervated) tibialis anterior muscle” value in assay [2] (s.c. twice daily for nine days, + theophylline 30 mg/kg i.p., FIG. 1A) is on record as “induces hypertrophy”. Further, the “hypertrophy in the normal (non-denervated) medial gastrocnemius muscle” value in assay [2] (s.c. twice daily for nine days, + theophylline 30 mg/kg i.p., FIG. 1B) is listed as “induces hypertrophy”. Moreover, the “disuse-induced atrophy of the tibialis anterior muscle (muscle weight)” value in assay [1] (right hind leg casted, s.c. twice daily for ten days, 0.3, 1.0, 3.0 mg/kg, + theophylline 30 mg/kg i.p. twice daily, FIG. 2) is reported as “inhibits”. In addition, in assay [1] (s.c. twice daily for ten days, + theophylline 30 mg/kg i.p., FIG. 2), the “hypertrophy of the tibialis anterior muscles of the non-casted leg” value was “statistically significant hypertrophy”.
